Experimental data published in patent US8119614B2, “Substitution derivatives of N6-benzyladenosine, methods of their preparation, their use for preparation of drugs, cosmetic preparations and growth regulators, pharmaceutical preparations, cosmetic preparations and growth regulators containing these compounds” (Ustav Experimentalni Botaniky Akademie Ved Ceske Republiky, priority 2002, dated 2012).

Key:
[1] = system: Human T-lymphoblastic leukemia cell line CEM; experiment: In vitro cytotoxic activity, Calcein AM assay, CEM; format: cell-based; conditions: 72 hours
Source text: (§1) One of the parameters used, as the basis for cytotoxicity assays, is the metabolic activity of viable cells. For example, a microtiter assay, which uses the Calcein AM, is now widely used to quantitate cell proliferation and cytotoxicity. For instance, this assay is used in drug screening programs and in chemosensitivity testing. Because only metabolically active cells cleave Calcein AM, these assays detect viable cells exclusively. The quantity of reduced Calcein AM corresponds to the number of vital cells in the culture.
(§2) Human T-lymphoblastic leukemia cell line CEM; promyelocytic HL-60 and monocytic U937 leukemias; breast carcinoma cell lines MCF-7; cervical carcinoma cells HELA; mouse fibroblasts NIH3T3; human erythroleukaemia K562 and human malignant melanoma cells G361 were used for routine screening of compounds. The cells were maintained in Nunc/Corning 80 cm^2 plastic tissue culture flasks and cultured in cell culture medium (DMEM with 5 g/l glucose, 2 mM glutamine, 100 U/ml penicillin, 100 μg/ml streptomycin, 10% fetal calf serum and sodium bicarbonate).
(§3) The cell suspensions that were prepared and diluted according to the particular cell type and the expected target cell density (10^4 cells per well based on cell growth characteristics) were added by pipette (80 μl) into 96/well microtiter plates. Inoculates were allowed a pre-incubation period of 24 hours at 37° C. and 5% CO2 for stabilisation. Four-fold dilutions of the intended test concentration were added at time zero in 20 μl aliquots to the microtiter plate wells. Usually, test compound was evaluated at six 4-fold dilutions. In routine testing, the highest well concentration was 166.7 μM, but it can be the matter of change dependent on the agent. All drug concentrations were examined in duplicates. Incubations of cells with the test compounds lasted for 72 hours at 37° C., in 5% CO2 atmosphere and 100% humidity. At the end of incubation period, the cells were assayed by using the Calcein AM. Ten microliters of the stock solution were pipetted into each well and incubated further for 1 hours. Fluorescence (FD) was measured with the Labsystem FIA Reader Fluoroscan Ascent (UK). The tumour cell survival (GI50) was calculated using the following equitation: GI50=(FDdrug exposed well/mean FDcontrol wells)×100%. The GI50 value, the drug concentration lethal to 50% of the tumour cells, was calculated from the obtained dose response curves (FIG. 3).

[2] = system: human erythroleukaemia K562; experiment: In vitro cytotoxic activity, Calcein AM assay, K-562; format: cell-based; conditions: 72 hours, read-out: IC 50 K-562
Source text: as §1, §2, §3

HOS = experiment: In vitro cytotoxic activity, Calcein AM assay, HOS; format: cell-based; conditions: 72 hours
promyelocytic HL-60 = experiment: In vitro cytotoxic activity, Calcein AM assay, HL60; format: cell-based, human; conditions: 72 hours, read-out: IC 50 HL60
Source text: as §1, §2, §3

[3] = system: human malignant melanoma cells G361; experiment: In vitro cytotoxic activity, Calcein AM assay, G-361; format: cell-based; conditions: 72 hours, read-out: IC 50 G-361
Source text: as §1, §2, §3

[4] = system: breast carcinoma cell lines MCF-7; experiment: In vitro cytotoxic activity, Calcein AM assay, MCF7; format: cell-based, human; conditions: 72 hours, read-out: IC 50 MCF7
Source text: as §1, §2, §3

mouse fibroblasts NIH3T3 = experiment: In vitro cytotoxic activity, Calcein AM assay, NIH-3T3; format: cell-based; conditions: 72 hours, read-out: IC 50 NIH-3T3
Source text: as §1, §2, §3

Compound | IC50 [1] [µM] | IC50 [2] [µM] | IC50 (HOS) [µM] | IC50 (promyelocytic HL-60) [µM] | IC50 [3] [µM] | IC50 [4] [µM] | IC50 (mouse fibroblasts NIH3T3) [µM]
COc1cccc(CNc2nc(Cl)nc3c2ncn3[C@@H]2O[C@H](CO)[C@@H](O)[C@H]2O)c1O [R2 = Cl, 2-hydroxy-3-methoxybenzylamino] | 0.2 | 17 | > 167 | 0.1 | 140 | 23 | > 167
OC[C@H]1O[C@@H](n2cnc3c(NCc4ccccc4O)nc(Cl)nc32)[C@H](O)[C@@H]1O [R2 = Cl, 2-hydroxybenzylamino] | 0.56 | 75 | 2.5 | 0.38 | > 167 | 10.5 | 35.1
COc1ccccc1CNc1nc(Cl)nc2c1ncn2C1OC(CO)C(O)C1O (stereo not drawn) [R2 = Cl, 2-methoxyxybenzylamino] | 2.7 | 14.5 | 15.3 | 1.5 | > 167 | > 167 | > 167
OC[C@H]1O[C@@H](n2cnc3c(NCc4cccc(F)c4)nc(Cl)nc32)[C@H](O)[C@@H]1O [R2 = Cl, 3-fluorobenzylamino] | 3 | 5.3 | > 167 | 0.9 | 16 | 16 | > 167
OC[C@H]1O[C@@H](n2cnc3c(NCc4cccc(O)c4)nc(Cl)nc32)[C@H](O)[C@@H]1O [R2 = Cl, 3-hydroxybenzylamino] | 47.8 | > 167 | > 167 | 15.9 | > 167 | > 167 | > 167
COc1cccc(CNc2nc(Cl)nc3c2ncn3[C@@H]2O[C@H](CO)[C@@H](O)[C@H]2O)c1 [R2 = Cl, 3-methoxyxybenzylamino, 2-chloro-6-(3-methoxybenzylamino)purine riboside] | 6.5 | > 167 | > 167 | 4.1 | > 167 | > 167 | > 167
